Measured values from ChEMBL document CHEMBL6092123, “Configuration of two cysteine residues in a ring within a stapled Bim peptide affects the secondary structure and apoptotic activity” (Bioorg Med Chem Lett, 2024).

Experiments:
HeLa = assay: Induction of apoptosis in human HeLa cells assessed as green signal at 10 uM relative to control; assay type: functional
[1] = Drug uptake in human HeLa cells assessed as red signals at 10 uM incubated for 3 hrs by fluorescence microscopy; assay type: ADME, cell-based
[2] = Proteolytic stability assessed as proteinase K (unknown origin)-mediated drug degradation measured for 15 mins by Tricine-SDS-PAGE analysis; assay type: ADME; settings: read-out: Drug degradation

| Molecule | Activity (HeLa) [%] | Drug uptake [1] | metabolised at 0.25 h [2] [%] |
| --- | --- | --- | --- |
| CC[C@H](C)[C@@H]1NC(=O)[C@@H](NC(=O)[C@H](CCCNC(=N)N)NC(=O)[C@H](CC(C)C)NC(=O)[C@H](CCC(=O)O)NC(=O)[C@H](CCC(N)=O)NC(=O)[C@H](C)NC(=O)[C@@H](NC(=O)[C@H](Cc2c[nH]c3ccccc23)NC(=O)[C@@H](NC(=O)[C@H](CCC(=O)O)NC(=O)[C@H](CCCNC(=N)N)NC(=O)[C@H](CCCNC(=N)N)NC(=O)[C@H](CCCNC(=N)N)NC(=O)[C@H](CCC(N)=O)NC(=O)[C@H](CCCNC(=N)N)NC(=O)[C@H](CCCNC(=N)N)NC(=O)[C@H](CCCCN)NC(=O)[C@H](CCCCN)NC(=O)[C@@H](N)CCCNC(=N)N)[C@@H](C)CC)[C@@H](C)CC)CSCc2ccccc2CSC[C@@H](C(=O)N[C@@H](Cc2ccccc2)C(=O)N[C@@H](CC(N)=O)C(=O)N[C@@H](C)C(=O)N[C@@H](Cc2ccc(O)cc2)C(=O)N[C@@H](Cc2ccc(O)cc2)C(=O)N[C@@H](C)C(=O)N[C@@H](CCCNC(=N)N)C(=O)O)NC(=O)[C@H](CC(=O)O)NC(=O)CNC1=O | 94 | Active | 68 |
| CC[C@H](C)[C@@H]1NC(=O)[C@@H](NC(=O)[C@H](CCCNC(=N)N)NC(=O)[C@H](CC(C)C)NC(=O)[C@H](CCC(=O)O)NC(=O)[C@H](CCC(N)=O)NC(=O)[C@H](C)NC(=O)[C@@H](NC(=O)[C@H](Cc2c[nH]c3ccccc23)NC(=O)[C@@H](NC(=O)[C@@H](N)CCC(=O)O)[C@@H](C)CC)[C@@H](C)CC)CSCc2ccccc2CSC[C@@H](C(=O)N[C@@H](Cc2ccccc2)C(=O)N[C@@H](CC(N)=O)C(=O)N[C@@H](C)C(=O)N[C@@H](Cc2ccc(O)cc2)C(=O)N[C@@H](Cc2ccc(O)cc2)C(=O)N[C@@H](C)C(=O)N[C@@H](CCCNC(=N)N)C(=O)O)NC(=O)[C@H](CC(=O)O)NC(=O)CNC1=O | – | Not_active | – |
| CC[C@H](C)[C@H](NC(=O)[C@H](Cc1c[nH]c2ccccc12)NC(=O)[C@@H](NC(=O)[C@H](CCC(=O)O)NC(=O)[C@H](CCCNC(=N)N)NC(=O)[C@H](CCCNC(=N)N)NC(=O)[C@H](CCCNC(=N)N)NC(=O)[C@H](CCC(N)=O)NC(=O)[C@H](CCCNC(=N)N)NC(=O)[C@H](CCCNC(=N)N)NC(=O)[C@H](CCCCN)NC(=O)[C@H](CCCCN)NC(=O)[C@@H](N)CCCNC(=N)N)[C@@H](C)CC)C(=O)N[C@@H](C)C(=O)N[C@@H](CCC(N)=O)C(=O)N[C@@H](CCC(=O)O)C(=O)N[C@@H](CC(C)C)C(=O)N[C@@H](CCCNC(=N)N)C(=O)N[C@@H]1CSCc2ccccc2CSC[C@H](C(=O)N[C@@H](Cc2ccccc2)C(=O)N[C@@H](CC(N)=O)C(=O)N[C@@H](C)C(=O)N[C@@H](Cc2ccc(O)cc2)C(=O)N[C@@H](Cc2ccc(O)cc2)C(=O)N[C@@H](C)C(=O)N[C@@H](CCCNC(=N)N)C(=O)O)NC(=O)[C@H](CC(=O)O)NC(=O)CNC(=O)[C@H]([C@@H](C)CC)NC1=O | 9.3 | – | – |
| CC[C@H](C)[C@H](NC(=O)[C@H](Cc1c[nH]c2ccccc12)NC(=O)[C@@H](NC(=O)[C@H](CCC(=O)O)NC(=O)[C@H](CCCNC(=N)N)NC(=O)[C@H](CCCNC(=N)N)NC(=O)[C@H](CCCNC(=N)N)NC(=O)[C@H](CCC(N)=O)NC(=O)[C@H](CCCNC(=N)N)NC(=O)[C@H](CCCNC(=N)N)NC(=O)[C@H](CCCCN)NC(=O)[C@H](CCCCN)NC(=O)[C@@H](N)CCCNC(=N)N)[C@@H](C)CC)C(=O)N[C@@H](C)C(=O)N[C@@H](CCC(N)=O)C(=O)N[C@@H](CCC(=O)O)C(=O)N[C@@H](CC(C)C)C(=O)N[C@@H](CCCNC(=N)N)C(=O)N[C@@H]1CSCc2ccccc2CSC[C@@H](C(=O)N[C@@H](Cc2ccccc2)C(=O)N[C@@H](CC(N)=O)C(=O)N[C@@H](C)C(=O)N[C@@H](Cc2ccc(O)cc2)C(=O)N[C@@H](Cc2ccc(O)cc2)C(=O)N[C@@H](C)C(=O)N[C@@H](CCCNC(=N)N)C(=O)O)NC(=O)[C@H](CC(=O)O)NC(=O)CNC(=O)[C@H]([C@@H](C)CC)NC1=O | 14 | – | – |
| CC[C@H](C)[C@@H]1NC(=O)[C@@H](NC(=O)[C@H](CCCNC(=N)N)NC(=O)[C@H](CC(C)C)NC(=O)[C@H](CCC(=O)O)NC(=O)[C@H](CCC(N)=O)NC(=O)[C@H](C)NC(=O)[C@@H](NC(=O)[C@H](Cc2c[nH]c3ccccc23)NC(=O)[C@@H](NC(=O)[C@@H](N)CCC(=O)O)[C@@H](C)CC)[C@@H](C)CC)CSCc2ccccc2CSC[C@H](C(=O)N[C@@H](Cc2ccccc2)C(=O)N[C@@H](CC(N)=O)C(=O)N[C@@H](C)C(=O)N[C@@H](Cc2ccc(O)cc2)C(=O)N[C@@H](Cc2ccc(O)cc2)C(=O)N[C@@H](C)C(=O)N[C@@H](CCCNC(=N)N)C(=O)O)NC(=O)[C@H](CC(=O)O)NC(=O)CNC1=O | 52 | – | – |
| H-RKKRRQRRREIWIAQELRRIGDEFNAYYAR-OH | 37 | Active | 95 |
